Data: patent US20160287672A1, “METHOD OF TREATING CHRONIC HEART FAILURE BY ADMINISTERING RELAXIN” (priority 2008, published 2016)
Read-outs that look alike come from different tables or passages of the source.

Columns and labels:
[1] = system: patients with chronic and stable compensated congestive HF; assay: Open-label pilot study of IV recombinant relaxin over 24 hours in chronic heart failure patients; assay type: in vivo, human; conditions: for CI Change from baseline / CO Change from baseline / DBP Change from baseline / HR Change from baseline / PAP Change from baseline / PCWP Change from baseline / PVR Change from baseline / RAP Change from baseline / SBP Change from baseline / SVR Change from baseline: 960 mcg/kg/d IV, mean ± SD
Procedure: Overview. In this open-label study 16 patients with chronic and stable compensated congestive HF were enrolled in three dose-ascending cohorts of recombinant intravenous relaxin (10 to 960 mcg/kg/day) over 24 hours. Relaxin produced increases in cardiac index and stroke volume, and a decrease in pulmonary wedge pressure and NT-pro BNP. It improved markers of renal function, with a small rebound at the highest dose during post-infusion. […] A maximally tolerated dose was determined.
Design of Study. In this single-center, open-label study, 16 patients who fulfilled inclusion and but not exclusion criteria for chronic and stable compensated congestive HF were sequentially allocated to three ascending cohorts of intravenous (IV) relaxin. Main inclusion criteria included: Age >18 years; NYHA CHF Class II-III without restriction on etiology; left ventricular ejection fraction <35% within 6 months of enrollment; receiving established oral HF therapy expected to remain unchanged during the study period. Main exclusion criteria included: Wedge pressure <16 mmH or CI >2.5 L/min/m2; acute coronary syndrome (within 4 weeks) or recent myocardial infarction or cardiac surgery (within 6 months); AHF requiring intravenous therapy at baseline; systolic blood pressure <85 mmHg; uncorrected valvular heart disease, except for relative mitral and/or tricuspid valve insufficiency; obstructive or restrictive cardiomyopathy; recent episode of ventricular tachycardia or fibrillation (within 4 weeks); recent stroke (within 3 months); creatinine >2.0 mg/dl or serum transaminases and/or total bilirubin >2.5 times the upper limit of normal at screening visit; history of endometriosis.
The study drug was relaxin (produced by recombinant technology). Recombinant relaxin is identical to the native human hormone H2 relaxin. The dose escalation was as follows: Group A included sequential treatment for 8 hours each with dosages equivalent to 10, 30, and 100 mcg/kg/day. Group B included sequential treatment for 8 hours each with dosages equivalent to 240, 480, and 960 mcg/kg/day. Group C received 24 hours of treatment with 960 mcg/kg/day. Escalation from Group A to Group B was done after examining safety and tolerability of the doses used in Group A. Escalation from Group B to C occurred after the safety and tolerability of the highest dose in Group B (960 mcg/kg/day) was determined.
Patients were monitored in the intensive care unit for the infusion and post-infusion periods (24 hours either). Hemodynamic measurements, including CI, SVR, PCWP, SBP, RAP, and PVR, were serially performed using Swan-Ganz and arterial catheters. Likewise, clinical and laboratory monitoring was carried out serially throughout infusion and post-infusion and on Day 9 after beginning of infusion. An additional 30-day evaluation for serious adverse events was performed by phone. Endpoints included hemodynamic and neurohumoral (NT-pro BNP levels) changes from baseline, as well as monitoring of vital signs, electrocardiogram, serum chemistry, and hematology parameters throughout the study. For statistical analysis, an error probability of P<0.05 was regarded as significant. Baseline values were compared using the Kruskal-Wallis ANOVA on ranks followed by Dunn's test. Differences over time within the single groups (hemodynamics, renal parameter, and peptide levels) were analyzed with a Friedman Repeated Measures Analysis of Variance on Ranks followed by Dunn's test for comparison against the baseline.

healthy volunteers = conditions: cited from earlier work
[2] = system: systemic sclerosis patients; assay: Clinical trials of relaxin by continuous subcutaneous infusion for six months in systemic sclerosis patients; assay type: in vivo, human; conditions: continuous SQ infusion for six months
Text: Clinical trials with relaxin have also been conducted on systemic sclerosis patients. 257 human subjects who suffer from systemic sclerosis, a serious fibrotic disease, have been treated with relaxin by continuous and subcutaneous (SQ) infusion for six months. […] These findings support the hypothesis that relaxin administration was associated with balanced systemic and renal vasodilation.

[3] = system: systemic sclerosis patients; conditions: scleroderma patients (Seibold et al. 2000); cited from earlier work
[4] = system: hypertensive and normotensive rats; conditions: cited from earlier work
[5] = Group C, 960 mcg/kg/d IV over 24 hours

Substance: relaxin: Study drug produced by recombinant technology, identical to the native human hormone H2 relaxin; peptide hormone of A and B chains
- CI Change from baseline ([1]; Group B, 8 hr): 0.25 ± 0.3 L/min/m2
- CO Change from baseline ([1]; Group B, 8 hr): 0.48 ± 0.7 L/min
- DBP Change from baseline ([1]; Group B, 8 hr): −0.3 ± 6.8 mmHg
- HR Change from baseline ([1]; Group B, 8 hr): 1.8 ± 3.4 beats/min
- PAP Change from baseline ([1]; Group B, 8 hr): 0.3 ± 3.7 mmHg
- PCWP Change from baseline ([1]; Group B, 8 hr): −0.17 ± 2.7 mmHg
- PVR Change from baseline ([1]; Group B, 8 hr): 3.3 ± 27.5 dynes * sec/cm5
- RAP Change from baseline ([1]; Group B, 8 hr): 0.8 ± 1.2 mmHg
- SBP Change from baseline ([1]; Group B, 8 hr): −3.0 ± 5.1 mmHg
- SVR Change from baseline ([1]; Group B, 8 hr): −102 ± 248 dynes * sec/cm5
- absolute decreases in PCWP [1, 5]: approximately 4 mm Hg
- absolute increases of CI [1, 5]: up to 0.81 /min/m2
- CI Change from baseline ([1]; Group C, 8 hr): 0.43 ± 0.3 L/min/m2
- CO Change from baseline ([1]; Group C, 8 hr): 0.85 ± 0.5 L/min
- DBP Change from baseline ([1]; Group C, 8 hr): −4.8 ± 5.4 mmHg
- HR Change from baseline ([1]; Group C, 8 hr): 2.5 ± 4.3 beats/min
- PAP Change from baseline ([1]; Group C, 8 hr): −3.2 ± 3.1 mmHg
- PCWP Change from baseline ([1]; Group C, 8 hr): −2.5 ± 3.5 mmHg
- PVR Change from baseline ([1]; Group C, 8 hr): −58.5 ± 69.4 dynes * sec/cm5
- RAP Change from baseline ([1]; Group C, 8 hr): −1.2 ± 2.9 mmHg
- SBP Change from baseline ([1]; Group C, 8 hr): −1.3 ± 4.7 mmHg
- SVR Change from baseline ([1]; Group C, 8 hr): −255 ± 188 dynes * sec/cm5
- CI Change from baseline ([1]; Group C, 24 hr): 0.67 ± 0.15 L/min/m2
- CO Change from baseline ([1]; Group C, 24 hr): 1.25 ± 0.03 L/min
- DBP Change from baseline ([1]; Group C, 24 hr): −6.5 ± 7.5 mmHg
- HR Change from baseline ([1]; Group C, 24 hr): 0.67 ± 3.6 beats/min
- PAP Change from baseline ([1]; Group C, 24 hr): −5.0 ± 3.4 mmHg
- PCWP Change from baseline ([1]; Group C, 24 hr): −3.5 ± 3.0 mmHg
- PVR Change from baseline ([1]; Group C, 24 hr): −82.5 ± 55.5 dynes * sec/cm5
- RAP Change from baseline ([1]; Group C, 24 hr): −1.5 ± 2.7 mmHg
- SBP Change from baseline ([1]; Group C, 24 hr): −7.3 ± 9.5 mmHg
- SVR Change from baseline ([1]; Group C, 24 hr): −395 ± 217 dynes * sec/cm5
- drop of PVR ([1]; Group C, 960 mcg/kg/day IV): ~30%
- time course of NT-pro BNP ([1]; Groups A and C): significant declines
- creatinine and BUN post-infusion ([1]; after doses equivalent to 960 mcg/kg/day IV, spontaneously resolved by Day 30): increase on Day 9
- tolerability ([1]; all doses, 10-960 mcg/kg/day IV): well tolerated
- infusion-related adverse events ([1]; all groups): no infusion-related clinically significant adverse events
- symptomatic hypotension ([1]; all groups): no symptomatic hypotension was observed
- heart rate ([1]; all groups, 10-960 mcg/kg/d IV): did not change in any group
- creatinine values during infusion ([1]; all groups, significant in groups A and C): decreased
- right atrial pressure ([1]; all treatment groups): None of the treatment groups showed a significant decrease
- alterations of SBP ([1]; in general, all groups): significant alterations of SBP (FIG. 8) were not observed
- vital signs, ECG, serum chemistry, and hematology parameters ([1]; throughout the study): did not evoke any abnormalities
- maximally tolerated dose (MTD) of IV relaxin ([1]; without physician supervision, chronic HF patients): 240 to 480 µg/kg/day
- renal blood flow (healthy volunteers): increases renal blood flow
- blood pressure [2]: stable decreases in blood pressure
- predicted creatinine clearance [2]: statistically significant increase
- serious hypotensive events [2]: did not experience any serious hypotensive events
- predicted creatinine clearance [3]: sustained amelioration
- CI [4]: increase in CI
- SVR [4]: decrease in SVR
- mean arterial pressure [4]: without affecting mean arterial pressure
